Assay [1] deals with ERK1/2. Kind of assay: Nuclear translocation of ERK (fluorescence microscopy, subcellular fractionation). Format: cell-based. The procedure: FIGS. 1A-1F illustrate that EPE peptide prevents nuclear translocation of ERK1. A2352 (A), MDA-MB-231 (B) HeLa (C), T47D (D), NHEM-AD (E) and HB2 (F) cells were serum-starved, pretreated with the EPE peptides, Scr peptide (10 μM, 2 h) DMSO and then either stimulated with TPA (250 nM, 15 min) or left untreated (NS) as control. The cells were stained with αgERK1/2 Ab and DAPI. Scale-bar—15 μm.
FIGS. 12A-12D illustrate that the EPE peptide inhibits the nuclear translocation of ERK1/2. Serum-starved (0.1% FCS, 16 hr) A2352 (FIG. 12A), HeLa (FIG. 12B), MDA-MB-231 (FIG. 12C), or LOXMVI (FIG. 12D) cells were pretreated with EPE or scrambled peptides (10 μM, 2 hr). Cells were then stimulated with EGF (50 ng/ml) or left untreated, and then harvested. Subcellular fractionation of cytoplasm and nucleus was performed as below, and fractions were subjected to Western blot analysis with the indicated Abs. Subcellular Fractionation was performed as follows: Harvested cells were resuspended in 200 μl of buffer H containing 0.1% Nonidet P-40. The lysates were mixed vigorously and centrifuged immediately to yield supernatants containing the cytosolic fraction. Nuclear proteins were extracted by resuspending the nuclear pellets in 200 μl of extraction buffer, waiting on ice for 5 min, brief sonication (2×5 sec, 40 W, 4° C.), vigorous mixing, and centrifugation. Both cytosolic and nuclear fractions were subjected to Western blotting.
A2185 (A) and A2352 (B) B-Raf melanoma cells were serum-starved (16 hours, 0.1% FBS), and then either pretreated with the EPE peptides (10 μM, 2 hours) or left untreated. Then, the cells were stimulated with TPA ([…], 20 min), or left untreated (NS) DMSO as control. The cells were stained with either anti ERK1 (Santa Cruz, C16) or anti ERK2 (C14, Santa Cruz) Abs and DAPI. (C) Quantification of the number of cell in which ERK1 or ERK2 were mostly (>80%) localized in the nucleus was performed by counting 5 fields containing 100 cells per field.
FIGS. 15A-15B illustrate that the EPE peptide prevents nuclear accumulation/translocation of ERK1/2 in PLX4032-resistant melanoma cells. A2352 that were made resistant to PLX4032 (as described under Material and Methods) and A4132 PLX4032 resistant melanoma cell from patient were serum-starved (16 hours, 0.1%), pretreated with the EPE or scrambled peptide (10 μM, 2 hours) and then either stimulated with TPA (100 nM, 20 min) or left untreated (NT) as control. The cells were stained with αgERK1/2 Ab and DAPI.
Cells were fixed in 3% paraformaldehyde in PBS (20 min, 23° C.), and then permeabilized and blocked with 0.2% Triton X-100 in PBS-BSA (2%) for 20 min at 23° C. The fixed cells were sequentially incubated with appropriated Abs, (diluted in 10 μg/ml BSA/PBS) for 1 h, followed by either Cy-2 or rhodamine-conjugated secondary Abs and DAPI (diluted in BSA/PBS, 1:200) for 1 h. To follow the subcellular localization of the biotin-conjugated peptides, cells were incubated with Avidin-FITC (diluted in BSA/PBS 1:400) and DAPI. Slides were analyzed and photographed by a fluorescent microscope (Nikon, Japan, 600× magnification).

The subject of assay [2] is AKT. Description: Western blotting of AKT phosphorylation. Format: cell-based. The procedure: (A) EPE peptide prevents ERK1/2-importin7 interaction. HeLa cells were serum starved (0.1%, 16 hours), pretreated with EPE peptide, scrambled peptide (10 μM, 2 hours) or DMSO, and then stimulated with TPA (250 nM, 15 min). ERK1 were precipitated with αgERK1 Ab; importin7 co-immunoprecipitated with ERK1 was detected by WB with αimportin7 Ab. […] T47D, HeLa, MDA-MB-231 and A2352 cells were serum starved (0.1%, 16 hours), pretreated with EPE peptide, scrambled peptide (10 μM, 2 hours) or DMSO control, and then stimulated with TPA (250 nM, indicated times). Cell extracts were subjected to Western blot analysis with the indicated Abs. (C) EPE peptide inhibits phosphorylation of c-Myc and Elk1 in B-Raf melanomas. A2158 and A2352 cells were treated with scrambled and EPE peptide for two hours and then stimulated with the indicated concentration of TPA for 30 min. […] (D) Quantification of some of the results in B and C. […]
(i) Preparation of cellular extracts for Western Blotting: Cells were rinsed twice with ice-cold PBS and scraped into Radio-immunoprecipitation assay buffer (RIPA; 137 mM NaCl, 20 mM Tris (pH 7.4), 10% glycerol, 1% Triton X-100, 0.5% deoxycholate, 0.1% SDS, 2 mM EDTA, 1 mM PMSF, and 20 μM leupeptin). The extracts were centrifuged (20,000×g, 15 min, 4° C.), and the supernatants were further analyzed by Western blotting. […]

The test system of assay [3] is ERK. Description: Immunohistochemistry of ERK localization in xenograft tumors. It is filed as in vivo, mice. As to conditions: MDA-MB-231 and LOXIMVI xenografts, anti ERK Ab. An excerpt: FIGS. 10A-10B illustrate that the EPE peptide causes cytoplasmatic localization of ERK in xenografts. FIG. 10A: Photographs illustrating that EPE and Scr peptide as well as DMSO-treated MDA-MB-231 and LOXIMVI xenografts were immunostained with αgERK Ab. FIG. 10B presents bar-graphs representing number of cells with cytoplasmatic/nuclear ERK staining calculated in 10 random microscopic fields.

Consider “GQLNHILGILGEPEQED (Synthetic peptide (EPE)) [EPE peptide, NTS-derived peptide with phosphomimetic EPE motif]”, for which the “inhibitory effect on nuclear translocation of ERK, compared among SPS, EPE and APA peptides” value in assay [1] is recorded as “stronger than that of the other two”. The “inhibition of ERK1 versus ERK2 translocation” value in assay [1] (A2185 and A2352 B-Raf melanoma cells) is “No significant differences between the inhibition of ERK1 and ERK2”. For the same sequence, the “nuclear translocation of ERK1/2 by subcellular fractionation” value in assay [1] (A2352, HeLa, MDA-MB-231, LOXMVI, 10 μM, 2 hr, EGF) was “same trend of inhibition”. Further, in assay [1] (PLX4032-resistant A2352 and A4132 cells, 10 μM, 2 hours, TPA), the “amount of nuclear ERK1/2 in resistant melanoma cells” value is “reduced the amount of nuclear ERK1/2 both before and after stimulation”. Besides, the “activation of AKT in resistant melanoma cells” value in assay [2] (data not shown) is “No significant effects”. Moreover, the “basal or stimulated phosphorylation of AKT” value in assay [2] (shortly after stimulation or longer time periods after treatment) is given as “no effect on the basal or stimulated phosphorylation of AKT”. Moreover, in assay [3], the “ERK localization in xenograft tumor sections” value is “localized almost exclusively in the cytoplasm”.

The values above are taken from patent publication US10240133B2, “ERK-derived peptides and uses thereof” (Yeda Research and Development Co. Ltd., priority 2013, dated 2019).
